Patent US20150045610A1, “METHOD OF MODIFYING SPERMATOGENESIS, SPERMIOGENESIS AND/OR FERTILITY IN MAMMALS” (Monell Chemical Senses Center, priority 2012, published 2015)
Blank lines part the entries; values can stand above or below the compound they belong to.

Legend:
human T1R3 receptor = target: T1, human T1R3 receptor (Homo sapiens, UniProt Q7RTX0); conditions: cited from earlier work
T1 construct: expressed in transfected cells
T1 sequence (Q7RTX0 21-852): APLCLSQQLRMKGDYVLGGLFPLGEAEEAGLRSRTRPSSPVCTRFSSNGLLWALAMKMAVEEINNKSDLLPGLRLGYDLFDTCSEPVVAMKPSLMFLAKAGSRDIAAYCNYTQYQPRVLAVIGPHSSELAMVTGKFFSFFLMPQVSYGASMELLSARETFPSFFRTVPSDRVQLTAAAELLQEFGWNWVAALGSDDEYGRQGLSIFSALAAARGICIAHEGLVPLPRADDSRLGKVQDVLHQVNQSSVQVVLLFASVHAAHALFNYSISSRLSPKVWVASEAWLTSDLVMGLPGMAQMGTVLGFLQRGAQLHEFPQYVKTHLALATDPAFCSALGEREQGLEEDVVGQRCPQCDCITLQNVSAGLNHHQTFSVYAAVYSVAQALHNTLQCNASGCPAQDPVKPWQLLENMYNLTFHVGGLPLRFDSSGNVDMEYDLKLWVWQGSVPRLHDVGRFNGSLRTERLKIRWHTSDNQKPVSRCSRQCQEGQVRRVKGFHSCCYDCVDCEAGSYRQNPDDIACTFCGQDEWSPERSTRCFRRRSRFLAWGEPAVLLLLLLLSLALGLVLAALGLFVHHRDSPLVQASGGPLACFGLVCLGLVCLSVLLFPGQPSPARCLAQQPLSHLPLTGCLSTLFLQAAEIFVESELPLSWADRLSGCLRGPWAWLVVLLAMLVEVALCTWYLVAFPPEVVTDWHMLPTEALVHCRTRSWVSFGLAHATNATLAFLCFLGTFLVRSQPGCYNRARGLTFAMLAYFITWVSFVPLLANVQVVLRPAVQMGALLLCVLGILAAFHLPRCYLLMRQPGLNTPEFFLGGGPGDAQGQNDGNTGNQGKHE
T1 sequence (Q8TE23 20-839 partner): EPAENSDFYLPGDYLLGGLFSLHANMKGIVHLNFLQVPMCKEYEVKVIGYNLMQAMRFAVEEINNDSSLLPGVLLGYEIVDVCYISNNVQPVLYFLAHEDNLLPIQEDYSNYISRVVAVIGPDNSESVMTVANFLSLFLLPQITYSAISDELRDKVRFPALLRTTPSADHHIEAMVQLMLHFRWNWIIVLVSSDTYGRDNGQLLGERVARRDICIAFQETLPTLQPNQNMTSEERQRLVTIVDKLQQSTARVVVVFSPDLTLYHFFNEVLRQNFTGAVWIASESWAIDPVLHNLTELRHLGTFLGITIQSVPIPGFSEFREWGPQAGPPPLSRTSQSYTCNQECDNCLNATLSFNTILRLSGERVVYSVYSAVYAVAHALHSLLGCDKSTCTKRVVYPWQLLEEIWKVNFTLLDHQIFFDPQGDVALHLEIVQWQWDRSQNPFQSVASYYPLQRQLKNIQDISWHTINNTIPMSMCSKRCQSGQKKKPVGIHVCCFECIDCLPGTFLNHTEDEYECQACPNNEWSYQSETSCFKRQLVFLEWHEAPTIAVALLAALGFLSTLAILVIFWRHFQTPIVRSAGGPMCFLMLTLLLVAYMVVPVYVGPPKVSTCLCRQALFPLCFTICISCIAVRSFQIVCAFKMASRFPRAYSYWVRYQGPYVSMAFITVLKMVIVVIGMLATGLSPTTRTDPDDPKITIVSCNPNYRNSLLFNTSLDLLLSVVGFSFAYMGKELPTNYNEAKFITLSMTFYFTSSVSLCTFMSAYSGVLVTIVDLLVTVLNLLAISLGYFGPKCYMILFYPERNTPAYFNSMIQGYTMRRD

humanized mhT1R3 = target: T2, humanized mhT1R3 (Homo sapiens, UniProt Q7RTX0, A109T/A120V/A176D/A197V/A198V/A228S/A231N/A248T/A280V/A282S/A302S/A412V/A417V/A46T/A537T/C375D/D124S/D249S/D250G/D364H/D419E/D470T/D491G/D88A/DEL352-352/DEL488-489/E172D/E199T/E203N/E217D/E356N/E45S/E481Q/E505D/E525K/E545Q/F540P/F555L/G168S/G205S/G311T/G314N/G355L/G360D/G414H/G438R/G439D/G463S/G50T/G542N/H261R/H278R/H281Y/H332P/I485M/I536F/INS376MLQNLSSG/K32Q/K339E/K422L/K494V/K86G/L173R/L245Q/L272V/L29F/L354S/L385Q/L433M/L458M/L483S/L71F/L74M/M151L/M315I/M318V/M31A/N285S/N386L/N532H/N68L/P112S/P246H/P335S/P416H/P420H/P441T/P60I/Q221E/Q257L/Q317R/Q330L/Q336H/Q359L/Q372R/Q418S/Q504K/Q531K/R123Q/R247D/R252Q/R291G/R30K/R357A/R443Q/R467V/R473T/R479Q/R482Q/R486Y/R498Q/R52N/R550K/R553A/R556P/R560K/R56Q/S251Q/S267K/S289H/S290H/S392A/S446A/S447E/S464P/S477T/S490P/S53Q/S559P/S58N/S67P/T195Q/T346A/T377L/T390I/T434S/T480L/T63N/V152I/V277A/V366M/V36I/V381L/V393T/V437A/V465T/V61P/W72L); experiment: sweet taste preference of transgenic mice expressing humanized T1R3; assay type: in vivo, mouse
T2 construct: the extracellular domain is of mouse origin and the transmembrane and intracellular domains of human origin; mouse T1R3 extracellular domain (fusion partner replacing the human extracellular domain); expressed in transfected cells; host or cells: transgenic mice (Line 7, 9, 7c) on T1R3-null background; transgene under 13 kb T1R3 promoter, followed by IRES-eGFP
T2 sequence (Q7RTX0 with tags, fused parts or gaps L29F/R30K/M31A/K32Q/V36I/E45S/A46T/G50T/R52N/S53Q/R56Q/S58N/P60I/V61P/T63N/S67P/N68L/L71F/W72L/L74M/K86G/D88A/A109T/P112S/A120V/R123Q/D124S/M151L/V152I/G168S/E172D/L173R/A176D/T195Q/A197V/A198V/E199T/E203N/G205S/E217D/Q221E/A228S/A231N/L245Q/P246H/R247D/A248T/D249S/D250G/S251Q/R252Q/Q257L/H261R/S267K/L272V/V277A/H278R/A280V/H281Y/A282S/N285S/S289H/S290H/R291G/A302S/G311T/G314N/M315I/Q317R/M318V/Q330L/H332P/P335S/Q336H/K339E/T346A/DEL352-352/L354S/G355L/E356N/R357A/Q359L/G360D/D364H/V366M/Q372R/C375D/INS376MLQNLSSG/T377L/V381L/L385Q/N386L/T390I/S392A/V393T/A412V/G414H/P416H/A417V/Q418S/D419E/P420H/K422L/L433M/T434S/V437A/G438R/G439D/P441T/R443Q/S446A/S447E/L458M/G463S/S464P/V465T/R467V/D470T/R473T/S477T/R479Q/T480L/E481Q/R482Q/L483S/I485M/R486Y/DEL488-489/S490P/D491G/K494V/R498Q/Q504K/E505D/E525K/Q531K/N532H/I536F/A537T/F540P/G542N/E545Q/R550K/R553A/F555L/R556P/S559P/R560K limits assumed): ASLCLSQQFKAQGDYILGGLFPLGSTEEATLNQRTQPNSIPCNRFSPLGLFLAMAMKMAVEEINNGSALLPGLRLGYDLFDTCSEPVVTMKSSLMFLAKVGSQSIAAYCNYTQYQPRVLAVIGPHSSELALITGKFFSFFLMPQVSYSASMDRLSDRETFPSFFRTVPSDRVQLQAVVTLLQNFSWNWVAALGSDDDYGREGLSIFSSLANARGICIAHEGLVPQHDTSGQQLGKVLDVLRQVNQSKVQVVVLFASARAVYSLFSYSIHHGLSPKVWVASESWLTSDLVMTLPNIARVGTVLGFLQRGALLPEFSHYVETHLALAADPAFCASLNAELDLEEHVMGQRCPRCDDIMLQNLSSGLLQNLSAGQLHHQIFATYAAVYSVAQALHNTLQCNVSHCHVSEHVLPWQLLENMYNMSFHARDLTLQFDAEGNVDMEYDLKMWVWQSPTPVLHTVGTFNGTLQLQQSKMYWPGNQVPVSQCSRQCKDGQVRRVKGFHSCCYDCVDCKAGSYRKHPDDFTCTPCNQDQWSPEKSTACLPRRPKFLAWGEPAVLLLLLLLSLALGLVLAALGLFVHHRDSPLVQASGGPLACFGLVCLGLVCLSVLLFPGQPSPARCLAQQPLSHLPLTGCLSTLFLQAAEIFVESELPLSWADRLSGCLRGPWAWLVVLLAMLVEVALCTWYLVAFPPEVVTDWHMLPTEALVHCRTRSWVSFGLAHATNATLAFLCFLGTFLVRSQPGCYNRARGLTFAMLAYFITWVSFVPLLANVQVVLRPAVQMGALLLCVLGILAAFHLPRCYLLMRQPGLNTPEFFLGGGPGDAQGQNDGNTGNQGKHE
T2 sequence (Q925I4 20-843 partner): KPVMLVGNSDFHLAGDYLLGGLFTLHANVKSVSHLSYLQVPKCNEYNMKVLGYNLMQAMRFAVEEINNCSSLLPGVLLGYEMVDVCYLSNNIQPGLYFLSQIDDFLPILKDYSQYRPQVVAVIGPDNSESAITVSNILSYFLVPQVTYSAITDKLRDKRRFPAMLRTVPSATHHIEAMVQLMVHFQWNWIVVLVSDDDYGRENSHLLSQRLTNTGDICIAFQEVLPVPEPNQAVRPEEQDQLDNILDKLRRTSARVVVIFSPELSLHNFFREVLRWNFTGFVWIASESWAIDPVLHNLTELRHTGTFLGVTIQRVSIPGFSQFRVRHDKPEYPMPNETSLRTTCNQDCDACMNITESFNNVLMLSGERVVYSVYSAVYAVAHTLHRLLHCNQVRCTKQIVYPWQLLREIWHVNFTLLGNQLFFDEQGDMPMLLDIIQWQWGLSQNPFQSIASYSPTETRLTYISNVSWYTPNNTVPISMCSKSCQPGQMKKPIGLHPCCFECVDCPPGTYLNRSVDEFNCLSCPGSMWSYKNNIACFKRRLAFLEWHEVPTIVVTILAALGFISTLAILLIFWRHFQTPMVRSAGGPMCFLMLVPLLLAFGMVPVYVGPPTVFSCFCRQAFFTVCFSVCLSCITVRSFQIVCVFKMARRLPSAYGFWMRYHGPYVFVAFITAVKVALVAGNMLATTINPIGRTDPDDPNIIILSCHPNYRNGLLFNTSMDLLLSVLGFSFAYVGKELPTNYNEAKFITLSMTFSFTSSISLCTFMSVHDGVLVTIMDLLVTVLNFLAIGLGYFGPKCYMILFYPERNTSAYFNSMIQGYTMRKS
Experimental: We used the chimeric mhT1R3 receptor to produce conventional transgenic animals. The DNA construct was injected into a genetically engineered mouse line that lacks endogenous T1R3 (T1R3KO or T1R3-null). […] We call these mice Line7.
For further crosses, we used the line 7 that has fewer copies of the transgene.
Such compounds may be produced normally in organs (e.g. in testis) or chemically synthesized.

PDE = PDE pharmacological block with theophylline in drinking water
[1] = lines 7, 9, 7c expressing humanized receptor

SMILES: CC(C)(Oc1ccc(CCNC(=O)c2ccc(Cl)cc2)cc1)C(=O)O [bezafibric acid]
T1R3 inhibition compared with PPAR-α activation (human T1R3 receptor): comparable to their activation of PPAR-α

preference of transgenic animals for sweetener (humanized mhT1R3; [1]): modest preference
SMILES: OC[C@H]1O[C@H](O[C@]2(CCl)O[C@H](CCl)[C@@H](O)[C@@H]2O)[C@H](O)[C@@H](O)[C@H]1Cl [sucralose]

preference of transgenic animals for sweetener (humanized mhT1R3; [1]): strong preference
SMILES: OC[C@H]1O[C@@](CO)(O[C@H]2O[C@H](CO)[C@@H](O)[C@H](O)[C@H]2O)[C@@H](O)[C@@H]1O [sucrose]

SMILES: CC(Oc1ccc(Cl)cc1Cl)C(=O)O (centres unmarked) [2,4-DP, 2-(2,4-dichlorophenoxyl) propionic acid]
sweet preference of Line 7 mice (humanized mhT1R3; 0.2 mM 2,4-DP): blocked | sweet responses of the transgenic animals (humanized mhT1R3; [1]): even more powerful inhibitor

SMILES: Cn1c(=O)c2[nH]cnc2n(C)c1=O [theophylline]
testis pathology (PDE; T1R3-null animals, theophylline, compared with clofibrate-treated animals): similar, although milder, pathology | pathology in testis after single block (PDE; control genotypes, theophylline alone, preliminary): no detectable pathology in testis | adverse effect on health and behavior (PDE; theophylline-treated animals): no obvious adverse effect
